Laboratory results taken from patent US20230049917A1, “Pharmaceutical Composition of CASR Modulators and Methods and Uses Thereof” (Lupin Limited, priority 2019, published 2023).
Where “and” joins values, the source holds several entries; their conditions need not be identical. Equal entries are not always repeated.

Key:
[1] = Phase 2 Main Study: phosphate change from baseline; assay type: in vivo, human
Method: For PK-PD assessments, blood samples for PK assessments were collected at scheduled time points (Screening Period; Day 1 (Pre-dose and post-dose); Day 2; Day 8 EOT (Pre-dose and post-dose); Day 9; Day 10; and Day 15+/−3 days (Follow-up visit)) in the PK-PD study. The PD profiling was done in parallel to the PK profiling in the PK-PD study. Blood samples (approximately 1×4 mL) for PK assessments were collected by venipuncture or cannulation at the selected time points into tubes containing dipotassium ethylenediaminetetraacetic acid (K2EDTA) anti-coagulant. The collected blood sample were kept on ice until centrifugation and later centrifuged at 4 °C at 5000 rpm for 10 minutes and the separated plasma collected in 2 tubes/aliquots. The plasma samples were stored at −20 °C or lower at the clinical centre until they were shipped for analysis. Blood samples (approximately 1×8 mL) for PD assessments were collected in PK-PD study and Main Study at selected time points The Main Study's selected time points were Screening Period; Day 1; Day 8+/−3 days; Day 15+/−3 days; Day 30+/−3 days; Day 60+/−3 days; and Day 90+/−3 days (EOT/Early Discontinuations). Blood samples (approximately 1×5 mL) for exploratory PD assessments for PK-PD study and Main Study were collected at selected time points.
Change from baseline to all measured and relevant time points was calculated. The baseline value for this study was the higher of the 2 values obtained during screening period for serum iPTH concentration, corrected total serum calcium and phosphorous. The baseline value for all other parameters was the last valid and planned visit value prior to first dose of IP in the study. For continuous data, summary statistics included the number, arithmetic mean, standard deviation (SD), median, minimum and maximum. For categorical data, frequency and percentage were presented.

iPTH = experiment: Phase 2 Main Study: iPTH change from baseline in CKD patients with SHPT; assay type: in vivo, human; details: for iPTH levels reduced from baseline (FIG. 1) / mean percentage suppression in iPTH from baseline, peak, Day 90, 2 to 4 hours post-dose (exploratory analysis) / mean percentage suppression in iPTH from baseline at the end of 90 days / proportion of patients with ≥30% reduction in iPTH from baseline at end of 90 days (responder rate): patients on dialysis
Method: A randomized, double-blind, placebo-controlled phase 2 clinical study was conducted to assess the efficacy, pharmacokinetics (PK), pharmacodynamics (PD) and safety of 2-methyl-5-((2R,4S)-2-((((R)-1-(naphthalen-1-yl)ethyl)amino)methyl) chroman yl)benzoic acid, hydrochloride (Compound 3), as a monotherapy in patients with CKD with secondary hyperparathyroidism (SHPT). The patients enrolled in the study were either on dialysis or not on dialysis. Patients could continue taking doses (whether stable dosing or otherwise) of calcium supplements, phosphate binders, vitamin D, vitamin D analogues or a combination thereof for the treatment of SHPT in combination with Compound 3. Patients can take at least one calcium supplement, phosphate binder, vitamin D, vitamin D analogue or a combination thereof concurrently or concomitantly with Compound 3. Dosing for such calcium supplements, phosphate binders, vitamin D, vitamin D analogues or a combination thereof for the treatment of SHPT can be individualized based on patient's iPTH levels, and/or can correlate with doses presently used for the treatment of SHPT.
This was a double-blind, randomized, placebo-controlled, multicenter study with an additional non-randomized open-label arm conducted in patients with secondary hyper-parathyroidism (SHPT) associated with CKD which was further stratified in 2 groups: on dialysis and not on dialysis. The iPTH levels of patients in the “on dialysis” group were in a range of 428.2 pg/ml to 1240.6 pg/ml (mean 857.76 pg/ml) while those in the “not on dialysis” group were in a range of 125.0 pg/ml to 654.7 pg/ml (mean 297.83 pg/ml).
Total 179 patients were enrolled in this study of which 108 patients were on dialysis and 71 were not on dialysis. Patients of on dialysis group were further randomized to 3 subgroups administering 10 mg Compound 3, 25 mg Compound 3, or placebo once daily in a double blind fashion enrolling 35 patients, 36 patients and 18 patients, respectively, and an additional non-randomized open label arm enrolling 19 patients receiving 20 mg Compound 3, twice daily. A total of 98 patients completed the study. 10 patients discontinued the study. None of the patients discontinued the study due to adverse drug reactions.
Patients on not on dialysis group were randomized to two treatment subgroups administering 10 mg Compound 3, or placebo once daily in a double blind fashion enrolling 37 and 18 patients, respectively, and an additional non-randomized open label arm enrolling 16 patients receiving 5 mg Compound 3, twice daily. 4 patients discontinued the study. None of the patients discontinued the study due to adverse drug reactions.
The efficacy, PK, PD and safety of Compound 3, as a monotherapy in patients with CKD with secondary hyperparathyroidism (SHPT), were assessed. One objective of the study was to evaluate the mean percentage change in iPTH from baseline at the end of 90 days. Yet another objective of the study was to determine the proportion of patients with >30% reduction in iPTH from baseline at the end of 90 days. Yet another objective of the study was to ensure safety of patients.
For efficacy assessments, the primary efficacy assessment included measurement of iPTH and the exploratory efficacy assessment included measurement of parathyroid gland size at scheduled time points. Blood samples for measurement of iPTH were collected during Day −30 to Day −1 (Screening Period); Day 1; Day 8+/−3 days; Day 15+/−3 days; Day 30+/−3 days; Day 60+/−3 days; and Day 90+/−3 days (EOT/Early Discontinuations). Two blood samples were collected during Screening Period and higher of these 2 values was considered as a baseline value. During treatment period of the Main Study, blood samples were collected on Day 30, Day 60, and Day 90. If the blood sample collected on Day 90 could not be analysed for any reason, the second blood sample had to be collected within 3 days of end of treatment (EOT). […]

[2] = patients not on dialysis, 10 mg QD

With Cc1ccc([C@@H]2C[C@H](CN[C@H](C)c3cccc4ccccc34)Oc3ccccc32)cc1C(=O)O.Cl [Compound 3, 2-methyl-5-((2R,4S)-2-((((R)-1-(naphthalen-1-yl)ethyl)amino)methyl)chroman-4-yl)benzoic acid hydrochloride] the “phosphorous levels due to administration over a period of 90 days” value ([1]; CKD patients not on dialysis) was “no increase”, the “phosphorous levels due to administration over a period of 90 days” value ([1]; CKD patients on dialysis) was “no increase” and the “difference in mean percentage change in phosphate from baseline at the end of 90 days versus Placebo” value ([1]; patients not on dialysis, 10 mg and 5 mg arms) was “not significant”. The “difference in mean percentage change in phosphate from baseline at the end of 90 days versus Placebo” value ([1]; patients on dialysis, 10 mg, 20 mg and 25 mg arms) was “not significant”, the “iPTH levels reduced from baseline (FIG. 2)” value (iPTH; patients not on dialysis, 5 mg BID) was “more than 30%” and the “mean percentage suppression in iPTH from baseline at the end of 90 days (2 to 4 hours post-dose), exploratory analysis” value (iPTH; patients not on dialysis, 5 mg BID open label arm) was −55.03%. For the same compound, the “iPTH levels reduced from baseline (FIG. 2)” value (iPTH; [2]) was “more than 30%”, the “mean percentage suppression in iPTH from baseline at the end of 90 days (2 to 4 hours post-dose), exploratory analysis” value (iPTH; [2]) was −48.07% and the “mean percentage suppression in iPTH versus Placebo at the end of Day 90” value (iPTH; patients not on dialysis, 10 mg QD and 5 mg BID) was “No significant difference”. The “difference in proportion of patients who achieved ≥30% reduction in iPTH from baseline at the end of 90 days versus Placebo” value (iPTH; patients not on dialysis, QD or BID dosing regimen, 10 mg per day) was “not significant”, the “iPTH levels reduced from baseline (FIG. 1)” value (iPTH; 10 mg QD) was 25.65% and the “mean percentage suppression in iPTH from baseline, peak, Day 90, 2 to 4 hours post-dose (exploratory analysis)” value (iPTH; 10 mg QD) was −79.54%. For the same compound, the “mean percentage suppression in iPTH from baseline at the end of 90 days” value (iPTH; 10 mg QD, per protocol) was −25.65%, the “iPTH levels reduced from baseline (FIG. 1)” value (iPTH; 20 mg BID) was “more than 30%” and the “mean percentage suppression in iPTH from baseline at the end of 90 days” value (iPTH; 20 mg BID open label arm) was −82.42%. The “mean percentage suppression in iPTH from baseline, peak, Day 90, 2 to 4 hours post-dose (exploratory analysis)” value (iPTH; 20 mg BID open label arm) was −93.02%, the “proportion of patients with ≥30% reduction in iPTH from baseline at end of 90 days (responder rate)” value (iPTH; 20 mg BID, hydrochloride) was 93% and ~90% and the “iPTH levels reduced from baseline (FIG. 1)” value (iPTH; 25 mg QD) was “more than 30%”. The “mean percentage suppression in iPTH from baseline, peak, Day 90, 2 to 4 hours post-dose (exploratory analysis)” value (iPTH; 25 mg QD) was −85.79%, the “proportion of patients with ≥30% reduction in iPTH from baseline at end of 90 days (responder rate)” value (iPTH; 25 mg QD) was “around 80%” and the “mean percentage suppression in iPTH from baseline at the end of 90 days” value (iPTH; 25 mg QD, per protocol) was −56.65%.
